These results are taken from ChEMBL document CHEMBL4190397, “Design and Synthesis of Novel and Selective Glycine Transporter-1 (GlyT1) Inhibitors with Memory Enhancing Properties” (J Med Chem, 2018).

In assay [1] the target is T1, Sodium- and chloride-dependent glycine transporter 1 (Homo sapiens, UniProt P48067).
T1 sequence (P48067 whole entry): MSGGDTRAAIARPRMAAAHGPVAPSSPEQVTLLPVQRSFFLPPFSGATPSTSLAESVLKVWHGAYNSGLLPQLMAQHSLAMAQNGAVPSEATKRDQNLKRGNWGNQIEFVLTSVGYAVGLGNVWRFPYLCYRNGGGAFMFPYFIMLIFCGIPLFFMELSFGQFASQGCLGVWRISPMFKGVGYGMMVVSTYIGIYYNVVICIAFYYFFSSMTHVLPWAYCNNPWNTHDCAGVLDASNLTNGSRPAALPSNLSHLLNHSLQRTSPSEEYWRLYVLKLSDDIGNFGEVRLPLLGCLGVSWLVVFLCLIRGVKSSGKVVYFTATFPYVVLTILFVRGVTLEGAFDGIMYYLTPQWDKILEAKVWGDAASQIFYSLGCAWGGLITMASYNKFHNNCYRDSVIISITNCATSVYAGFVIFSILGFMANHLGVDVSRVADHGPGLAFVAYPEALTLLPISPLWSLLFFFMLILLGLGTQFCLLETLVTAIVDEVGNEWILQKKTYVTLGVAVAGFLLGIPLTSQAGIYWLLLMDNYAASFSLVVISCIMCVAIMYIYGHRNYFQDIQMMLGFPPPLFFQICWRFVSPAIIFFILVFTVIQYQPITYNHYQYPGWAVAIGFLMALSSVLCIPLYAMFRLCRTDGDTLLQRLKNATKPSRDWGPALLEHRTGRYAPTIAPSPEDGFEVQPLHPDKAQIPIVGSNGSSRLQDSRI
Nature of the assay: Inhibition of recombinant human GlyT1c expressed in HEK293 cells assessed as reduction in [14C]glycine uptake after 2 hrs by microbeta scintillation counting method. Format: cell-based.

In assay [2] the target is T2, Sodium- and chloride-dependent glycine transporter 1 (Rattus norvegicus, UniProt P28572).
T2 sequence (P28572 whole entry): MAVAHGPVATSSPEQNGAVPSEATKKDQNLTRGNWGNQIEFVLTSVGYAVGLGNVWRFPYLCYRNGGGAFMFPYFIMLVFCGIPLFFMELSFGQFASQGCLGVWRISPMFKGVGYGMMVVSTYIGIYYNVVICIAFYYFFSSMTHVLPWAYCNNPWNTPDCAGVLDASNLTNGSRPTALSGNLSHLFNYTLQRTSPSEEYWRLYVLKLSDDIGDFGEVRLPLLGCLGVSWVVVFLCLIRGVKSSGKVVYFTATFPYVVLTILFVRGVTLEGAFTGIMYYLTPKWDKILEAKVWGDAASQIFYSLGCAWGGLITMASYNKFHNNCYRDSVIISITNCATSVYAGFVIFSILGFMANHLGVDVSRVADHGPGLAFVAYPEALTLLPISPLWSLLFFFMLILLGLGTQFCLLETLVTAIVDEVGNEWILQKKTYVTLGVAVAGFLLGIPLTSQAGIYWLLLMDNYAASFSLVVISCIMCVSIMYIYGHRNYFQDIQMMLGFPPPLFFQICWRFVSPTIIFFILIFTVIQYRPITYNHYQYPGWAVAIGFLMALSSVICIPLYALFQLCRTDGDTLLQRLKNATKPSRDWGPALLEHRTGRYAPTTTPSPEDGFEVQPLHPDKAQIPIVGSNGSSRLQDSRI
The assay can be described thus: Inhibition of GlyT1 in primary rat cortical neurons assessed as reduction in [14C]glycine uptake after 2 hrs by microbeta scintillation counting method.

Assay [3] concerns the target T3, Sodium- and chloride-dependent glycine transporter 2 (Homo sapiens, UniProt Q9Y345).
T3 sequence (Q9Y345 whole entry): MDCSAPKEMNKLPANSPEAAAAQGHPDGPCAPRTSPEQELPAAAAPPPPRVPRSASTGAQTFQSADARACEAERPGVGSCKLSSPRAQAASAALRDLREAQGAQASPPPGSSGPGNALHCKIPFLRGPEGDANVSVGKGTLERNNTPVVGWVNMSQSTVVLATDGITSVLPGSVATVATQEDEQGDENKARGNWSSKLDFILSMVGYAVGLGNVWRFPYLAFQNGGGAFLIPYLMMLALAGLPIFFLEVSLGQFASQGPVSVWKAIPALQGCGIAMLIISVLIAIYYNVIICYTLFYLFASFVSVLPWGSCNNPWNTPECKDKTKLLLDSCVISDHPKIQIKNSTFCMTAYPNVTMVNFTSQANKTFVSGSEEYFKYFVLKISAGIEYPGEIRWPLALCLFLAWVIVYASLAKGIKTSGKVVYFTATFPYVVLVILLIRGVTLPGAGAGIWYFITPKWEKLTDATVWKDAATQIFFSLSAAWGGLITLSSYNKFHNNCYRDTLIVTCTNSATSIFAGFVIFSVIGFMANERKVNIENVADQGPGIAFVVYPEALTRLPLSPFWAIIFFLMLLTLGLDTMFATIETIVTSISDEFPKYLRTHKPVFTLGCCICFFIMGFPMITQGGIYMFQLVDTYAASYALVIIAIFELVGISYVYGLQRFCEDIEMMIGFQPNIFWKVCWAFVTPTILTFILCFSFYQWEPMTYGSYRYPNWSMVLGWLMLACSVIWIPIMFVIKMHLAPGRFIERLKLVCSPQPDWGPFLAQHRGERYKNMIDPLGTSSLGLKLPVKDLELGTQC
Nature of the assay: Inhibition of recombinant human GlyT2 expressed in HEK293 cells assessed as reduction in [14C]glycine uptake after 2 hrs by microbeta scintillation counting method. Format: cell-based.

The structures appear in SMILES notation. Some results are limits rather than exact numbers.

For `Cc1cc(-n2cc3c(n2)CN(C(=O)c2cc(S(C)(=O)=O)ccc2N2CCC(F)(F)CC2)C3)ccn1`, the results for the IC50 in assay [1], in assay [2] and in assay [3] were 7 nM, 4 nM and above 10000 nM, respectively.

With `C[C@H](Oc1ccc(C#N)cc1C(=O)N1Cc2cn(C3CCCC3)nc2C1)C(F)(F)F`, the 50% inhibitory concentration (IC50) (in general, the concentration that gives 50% inhibition) in assay [1] was 210 nM; in assay [2], 331 nM.

Consider `Cc1cc(-n2cc3c(n2)CN(C(=O)c2cc(S(C)(=O)=O)ccc2O[C@@H](C)C(F)(F)F)C3)ccn1`, for which the IC50 was 12 nM in assay [1], 3 nM in assay [2] and above 10000 nM in assay [3].

For `CS(=O)(=O)c1ccc(N2CCC(F)(F)CC2)c(C(=O)N2Cc3cn(-c4cncc(F)c4)nc3C2)c1`, the IC50 in assay [2] was 10 nM; in assay [3], above 10000 nM.

On to `Cc1cc(-n2cc3c(n2)CN(C(=O)c2cc(C#N)ccc2N2CCC(F)(F)CC2)C3)ccn1`, for which the concentration for half-maximal inhibition (IC50) in assay [2] is 4 nM; in assay [3], above 10000 nM.

On to `CC(C)Oc1ccc(C#N)cc1C(=O)N1Cc2cn(-c3cncc(F)c3)nc2C1`, for which the half-maximal inhibitory concentration (IC50) in assay [1] was 113 nM; in assay [2], 183 nM; in assay [3], above 10000 nM.

On to `Cc1cccc(-n2cc3c(n2)CN(C(=O)c2cc(S(C)(=O)=O)ccc2O[C@@H](C)C(F)(F)F)C3)c1`, for which the half-inhibitory concentration (IC50) in assay [1] was 23 nM; in assay [2], 12 nM; in assay [3] it was above 10000 nM.

For the compound `CS(=O)(=O)c1ccc(-c2cccc(F)c2)c(C(=O)N2Cc3cn(-c4cncc(F)c4)nc3C2)c1`, the concentration for half-maximal inhibition (IC50) was 6 nM in assay [1], 10 nM in assay [2] and above 10000 nM in assay [3].

Regarding `Cc1cc(-n2cc3c(n2)CN(C(=O)c2cc(C#N)ccc2-c2cccc(F)c2)C3)ccn1`, the half-maximal inhibitory concentration (IC50) in assay [1] was 55 nM; in assay [2], 78 nM; in assay [3] it was above 10000 nM.

On to `Cc1cc(-n2cc3c(n2)CN(C(=O)c2cc(C#N)ccc2O[C@@H](C)C(F)(F)F)C3)ccn1`, for which the IC50 was 18 nM in assay [1], 27 nM in assay [2] and above 10000 nM in assay [3].

Consider `CCS(=O)(=O)c1ccc(O[C@@H](C)C(F)(F)F)c(C(=O)N2Cc3cn(-c4ccnc(C)c4)nc3C2)c1`, for which the results for the IC50 in assay [1], in assay [2] and in assay [3] were 12 nM, 4 nM and above 10000 nM, respectively.

For `Cc1cc(-n2cc3c(n2)CN(C(=O)c2cc(S(C)(=O)=O)ccc2-c2cccc(F)c2)C3)ccn1`, the 50% inhibitory concentration (IC50) in assay [1] was 4 nM; in assay [2] it was 2 nM; in assay [3] it was above 10000 nM.

As for `CC(C)Oc1ccc(C#N)cc1C(=O)N1Cc2cn(-c3ccccc3)nc2C1`, the figures for the half-maximal inhibitory concentration (IC50) in assay [1], in assay [2] and in assay [3] were 105 nM, 161 nM and above 10000 nM, respectively.

Take `CC(C)Oc1ccc(S(C)(=O)=O)cc1C(=O)N1Cc2cn(-c3ccccc3F)nc2C1`: the 50% inhibitory concentration (IC50) was 23 nM in assay [1], 18 nM in assay [2] and above 10000 nM in assay [3].

For the compound `CS(=O)(=O)c1ccc(N2CCC(F)(F)CC2)c(C(=O)N2Cc3cn(-c4ccccc4F)nc3C2)c1`, the concentration for half-maximal inhibition (IC50) in assay [2] is 12 nM; in assay [3], above 10000 nM.

Turning to `N#Cc1ccc(-c2cccc(F)c2)c(C(=O)N2Cc3cn(-c4cncc(F)c4)nc3C2)c1`, the IC50 is 619 nM in assay [2] and above 10000 nM in assay [3].

For the compound `CS(=O)(=O)c1ccc(-c2cccc(F)c2)c(C(=O)N2Cc3cn(-c4ccccc4F)nc3C2)c1`, the IC50 in assay [1] is 10 nM; in assay [2], 12 nM; in assay [3], above 10000 nM.
